These results are taken from ChEMBL document CHEMBL5550182, “Exploring the interaction of N-(benzothiazol-2-yl)pyrrolamide DNA gyrase inhibitors with the GyrB ATP-binding site lipophilic floor: A medicinal chemistry and QTAIM study” (Bioorg Med Chem, 2024).

The test has as its target DNA gyrase (Escherichia coli, UniProt P0AES4+P0AES6). The test can be described thus: Inhibition of Escherichia coli DNA gyrase supercoiling using relaxed pNO1 as substrate measured after 30 mins by SybrGOLD staining based fluorescence analysis. Format: protein-complex assay.
As usually defined, the IC50 is the concentration that gives 50% inhibition. A high value points to a need for much substance. `Cc1[nH]c(C(=O)N(Cc2ccccc2)c2nc3ccc(NC(=O)C(=O)O)cc3s2)c(Cl)c1Cl` gave an IC50 of 43 nM.

As for `CC(=O)Nc1ccc2c(c1)s/c(=N\C(=O)c1[nH]c(C)c(Cl)c1Cl)n2CCc1ccccc1`, half-maximal inhibition (IC50) required 620 nM.

`CC(=O)Nc1ccc2c(c1)s/c(=N\C(=O)c1[nH]c(C)c(Cl)c1Cl)n2Cc1ccc(C(=O)O)cc1` yielded an IC50 of 600 nM.

For `CC(=O)Nc1ccc2c(c1)s/c(=N\C(=O)c1[nH]c(C)c(Cl)c1Cl)n2Cc1cccc(C(=O)O)c1`, the IC50 stood at 100 nM.

The molecule `CC(=O)Nc1ccc2nc(N(Cc3ccccc3)C(=O)c3[nH]c(C)c(Cl)c3Cl)sc2c1` displayed an IC50 of 90000 nM.

In turn, `Cc1[nH]c(C(=O)/N=c2\sc3cc(NC(=O)C(=O)O)ccc3n2Cc2ccc(C(=O)O)cc2)c(Cl)c1Cl` gave an IC50 of 320 nM.

In the case of `CC(=O)Nc1ccc2nc(N(Cc3ccc(C(=O)O)cc3)C(=O)c3[nH]c(C)c(Cl)c3Cl)sc2c1`, the IC50 came to 35000 nM.

Molecule `CC(=O)Nc1ccc2c(c1)s/c(=N\C(=O)c1[nH]c(C)c(Cl)c1Cl)n2Cc1ccccc1` had an IC50 of 5800 nM.

On to `Cc1[nH]c(C(=O)N(Cc2ccc(C(=O)O)cc2)c2nc3ccc(NC(=O)C(=O)O)cc3s2)c(Cl)c1Cl`, for which inhibition was half-maximal at 1000 nM (IC50).

Consider `CC(=O)Nc1ccc2nc(N(Cc3cccc(C(=O)O)c3)C(=O)c3[nH]c(C)c(Cl)c3Cl)sc2c1`, for which the IC50 was found to be 54000 nM.

Turning to `CC(=O)Nc1ccc2nc(N(CCc3ccccc3)C(=O)c3[nH]c(C)c(Cl)c3Cl)sc2c1`, half-maximal inhibition (IC50) was put at 162000 nM.

Molecule `Cc1[nH]c(C(=O)N(Cc2cccc(C(=O)O)c2)c2nc3ccc(NC(=O)C(=O)O)cc3s2)c(Cl)c1Cl` yielded an IC50 of 2800 nM.

As to `Cc1[nH]c(C(=O)/N=c2\sc3cc(NC(=O)C(=O)O)ccc3n2Cc2ccccc2)c(Cl)c1Cl`, the IC50 was determined as 18 nM.

With `Cc1[nH]c(C(=O)/N=c2\sc3cc(NC(=O)C(=O)O)ccc3n2CCc2ccccc2)c(Cl)c1Cl`, the IC50 was determined as 100 nM.

Regarding `Cc1[nH]c(C(=O)/N=c2\sc3cc(NC(=O)C(=O)O)ccc3n2Cc2cccc(C(=O)O)c2)c(Cl)c1Cl`, it took 13 nM to reach half-maximal inhibition (IC50).

For the molecule `Cc1[nH]c(C(=O)N(CCc2ccccc2)c2nc3ccc(NC(=O)C(=O)O)cc3s2)c(Cl)c1Cl`, the IC50 came to 2200 nM.
